Test system: Mitochondria-located protein genes
Assay: DNA chip mRNA expression in yeast, mitochondria-located protein genes (Table 2)
Assay type: cell-based, Saccharomyces cerevisiae S288C
Conditions: cells incubated two hours with the chemical substance
Procedure: Yeast (Saccharomyces cerevisiae S288C (α SUC2mal mel gap2 CUP1)) were incubated at 25° C. on YPD medium (yeast extract 1%, polypepton 2%, glucose 2%). One of toxic chemical substances was added to the cells at logarithmic growth phase, and the cells were further incubated for two hours. Cells were cultured without any chemical substance in the same condition, and were used as control. Concentrations of the chemical substances were defined to inhibit the growth of the yeast but not lead to death.
After completion of the incubation, the culture was centrifuged to collect the cells. To the cells, sodium acetate buffer (50 mM sodium acetate, 10 mM EDTA, 1% SDS) was added, and the mixture was shaken at 65° C. for five minutes, followed by returning to room temperature, and obtaining the supernatant, of which the procedures were repeated two times. To the supernatant, ½ amount of a solution of phenol/chloroform was added, and the mixture was centrifuged to give a supernatant, which was added with an equal amount of chloroform, and the mixture was centrifuged to give a supernatant. To the supernatant, an equal amount of isopropanol containing 0.3 M sodium acetate was added, and the mixture was allowed to stand at room temperature for 30 minutes, after which the mixture was centrifuged to give a sediment of the whole RNAs. Seventy % ethanol was added to the sediment, and the mixture was again centrifuged to give a sediment, which was then dried and dissolved in water. mRNA was isolated from the whole RNAs as followings. In view of the fact that a poly A chain is attached to the 3′ terminus of mRNA, a polynucleotide having a poly T structure which was immobilized on the surface of latex beads was used to trap the mRNA, and then the mRNA was washed and eluted with spine column (Oligotex-dT30<Super>mRNA Purification Kit, Takara). Reverse transcription of the mRNA was conducted with a reverse transcriptase (Super Script II Reverse Transcriptase; catalogue No. 18064-014, GibcoBRL) using fluorescence-labeled nucleotides to give cDNAs that were introduced with Cy3-dUTP or Cy5-dUTP during the reverse transcription.
The labeled cDNAs were dissolved in TE buffer (10mM Tris-HCl/1 mM EDTA, pH8.0), and the solution was dropped on the DNA chip containing the whole genes of yeast (DNA Chip Research Inc. Japan) so that the cDNAs were hybridized on the DNA chip at 65° C. for over 12 hours. The fluoresces intensity of the DNA chip was read with a scanner, and the ratio relative to the fluorescence intensity resulting from the absence of chemical substance was estimated as the following, which is shown in Tables 1 to 9: […]

Structure (SMILES): [Cl][Pb][Cl] [(4), PbCl2]
- The level of expressed mRNA in the presence of chemical substance/The level of expressed mRNA in the absence of chemical substance (yeast gene YAL039C): 1.0
- The level of expressed mRNA in the presence of chemical substance/The level of expressed mRNA in the absence of chemical substance (yeast gene YBL022C): 0.7
- The level of expressed mRNA in the presence of chemical substance/The level of expressed mRNA in the absence of chemical substance (yeast gene YBL030C): 0.9
- The level of expressed mRNA in the presence of chemical substance/The level of expressed mRNA in the absence of chemical substance (yeast gene YBL038W): 1.8
- The level of expressed mRNA in the presence of chemical substance/The level of expressed mRNA in the absence of chemical substance (yeast gene YBL099W): 1.4
- The level of expressed mRNA in the presence of chemical substance/The level of expressed mRNA in the absence of chemical substance (yeast gene YBR003W): 1.9
- The level of expressed mRNA in the presence of chemical substance/The level of expressed mRNA in the absence of chemical substance (yeast gene YBR044C): 1.9
- The level of expressed mRNA in the presence of chemical substance/The level of expressed mRNA in the absence of chemical substance (yeast gene YBR091C): 3.0
- The level of expressed mRNA in the presence of chemical substance/The level of expressed mRNA in the absence of chemical substance (yeast gene YBR122C): 1.1
- The level of expressed mRNA in the presence of chemical substance/The level of expressed mRNA in the absence of chemical substance (yeast gene YBR185C): 2.0
- The level of expressed mRNA in the presence of chemical substance/The level of expressed mRNA in the absence of chemical substance (yeast gene YBR221C): 1.5
- The level of expressed mRNA in the presence of chemical substance/The level of expressed mRNA in the absence of chemical substance (yeast gene YBR251W): 1.2
- The level of expressed mRNA in the presence of chemical substance/The level of expressed mRNA in the absence of chemical substance (yeast gene YBR282W): 2.3
- The level of expressed mRNA in the presence of chemical substance/The level of expressed mRNA in the absence of chemical substance (yeast gene YCL057W): 0.5
- The level of expressed mRNA in the presence of chemical substance/The level of expressed mRNA in the absence of chemical substance (yeast gene YCR046C): 1.6
- The level of expressed mRNA in the presence of chemical substance/The level of expressed mRNA in the absence of chemical substance (yeast gene YCR083W): 1.8
- The level of expressed mRNA in the presence of chemical substance/The level of expressed mRNA in the absence of chemical substance (yeast gene YDL067C): 1.3
- The level of expressed mRNA in the presence of chemical substance/The level of expressed mRNA in the absence of chemical substance (yeast gene YDL181W): 1.8
- The level of expressed mRNA in the presence of chemical substance/The level of expressed mRNA in the absence of chemical substance (yeast gene YDL198C): 1.4
- The level of expressed mRNA in the presence of chemical substance/The level of expressed mRNA in the absence of chemical substance (yeast gene YDR079W): 1.1
- The level of expressed mRNA in the presence of chemical substance/The level of expressed mRNA in the absence of chemical substance (yeast gene YDR178W): 2.2
- The level of expressed mRNA in the presence of chemical substance/The level of expressed mRNA in the absence of chemical substance (yeast gene YDR231C): 1.5
- The level of expressed mRNA in the presence of chemical substance/The level of expressed mRNA in the absence of chemical substance (yeast gene YDR258C): 1.4
- The level of expressed mRNA in the presence of chemical substance/The level of expressed mRNA in the absence of chemical substance (yeast gene YDR298C): 1.3
- The level of expressed mRNA in the presence of chemical substance/The level of expressed mRNA in the absence of chemical substance (yeast gene YDR347W): 3.5
- The level of expressed mRNA in the presence of chemical substance/The level of expressed mRNA in the absence of chemical substance (yeast gene YDR377W): 1.4
- The level of expressed mRNA in the presence of chemical substance/The level of expressed mRNA in the absence of chemical substance (yeast gene YDR529C): 3.2
- The level of expressed mRNA in the presence of chemical substance/The level of expressed mRNA in the absence of chemical substance (yeast gene YEL024W): 1.1
- The level of expressed mRNA in the presence of chemical substance/The level of expressed mRNA in the absence of chemical substance (yeast gene YEL039C): 5.1
- The level of expressed mRNA in the presence of chemical substance/The level of expressed mRNA in the absence of chemical substance (yeast gene YER178W): 1.0
- The level of expressed mRNA in the presence of chemical substance/The level of expressed mRNA in the absence of chemical substance (yeast gene YFL016C): 0.9
- The level of expressed mRNA in the presence of chemical substance/The level of expressed mRNA in the absence of chemical substance (yeast gene YGL018C): 3.0
- The level of expressed mRNA in the presence of chemical substance/The level of expressed mRNA in the absence of chemical substance (yeast gene YGL187C): 1.8
- The level of expressed mRNA in the presence of chemical substance/The level of expressed mRNA in the absence of chemical substance (yeast gene YGL191W): 1.8
- The level of expressed mRNA in the presence of chemical substance/The level of expressed mRNA in the absence of chemical substance (yeast gene YGR008C): 3.2
- The level of expressed mRNA in the presence of chemical substance/The level of expressed mRNA in the absence of chemical substance (yeast gene YGR028W): 1.8
- The level of expressed mRNA in the presence of chemical substance/The level of expressed mRNA in the absence of chemical substance (yeast gene YGR062C): 1.4
- The level of expressed mRNA in the presence of chemical substance/The level of expressed mRNA in the absence of chemical substance (yeast gene YGR076C): 2.3
- The level of expressed mRNA in the presence of chemical substance/The level of expressed mRNA in the absence of chemical substance (yeast gene YGR082W): 1.0
- The level of expressed mRNA in the presence of chemical substance/The level of expressed mRNA in the absence of chemical substance (yeast gene YGR174C): 2.4
- The level of expressed mRNA in the presence of chemical substance/The level of expressed mRNA in the absence of chemical substance (yeast gene YGR244C): 1.6
- The level of expressed mRNA in the presence of chemical substance/The level of expressed mRNA in the absence of chemical substance (yeast gene YHR008C): 1.8
- The level of expressed mRNA in the presence of chemical substance/The level of expressed mRNA in the absence of chemical substance (yeast gene YIL155C): 3.7
- The level of expressed mRNA in the presence of chemical substance/The level of expressed mRNA in the absence of chemical substance (yeast gene YJL096W): 1.3
- The level of expressed mRNA in the presence of chemical substance/The level of expressed mRNA in the absence of chemical substance (yeast gene YJL102W): 0.8
- The level of expressed mRNA in the presence of chemical substance/The level of expressed mRNA in the absence of chemical substance (yeast gene YJL133W): 0.9
- The level of expressed mRNA in the presence of chemical substance/The level of expressed mRNA in the absence of chemical substance (yeast gene YJL166W): 1.3
- The level of expressed mRNA in the presence of chemical substance/The level of expressed mRNA in the absence of chemical substance (yeast gene YJL180C): 1.3
- The level of expressed mRNA in the presence of chemical substance/The level of expressed mRNA in the absence of chemical substance (yeast gene YJR077C): 1.6
- The level of expressed mRNA in the presence of chemical substance/The level of expressed mRNA in the absence of chemical substance (yeast gene YJR121W): 1.0

Source: US8192962B2, “Processes for detecting toxic substances” (Daikin Industries, Ltd., priority 2001, dated 2012)
